# Measured values taken from paper PMC10693631, “A multi-reservoir extruder for time-resolved serial protein crystallography and compound screening at X-ray free-electron lasers” (Nature Communications, 2023).
# Target: T1, Krokinobacter eikastus rhodopsin 2 (KR2) (Dokdonia eikasta, UniProt N0DKS8)
# T1 construct: gene NaR; light-driven sodium pump, membrane protein crystallised in monoolein LCP; expression and purification only cited
# T1 sequence (N0DKS8 1-280): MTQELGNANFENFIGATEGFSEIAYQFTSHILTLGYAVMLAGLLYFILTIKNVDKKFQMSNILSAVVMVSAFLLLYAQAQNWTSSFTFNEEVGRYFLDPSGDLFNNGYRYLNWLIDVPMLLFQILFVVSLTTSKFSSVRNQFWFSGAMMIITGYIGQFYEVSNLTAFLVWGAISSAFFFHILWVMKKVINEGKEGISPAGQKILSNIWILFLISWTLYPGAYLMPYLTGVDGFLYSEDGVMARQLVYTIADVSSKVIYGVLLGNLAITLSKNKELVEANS
# Test: time-resolved serial femtosecond crystallography (XFEL, room temperature), dark state
# Assay type: binding
# Settings: covalent, light state 1 us after 575 nm pulse deposited as 8CL8, crystals shifted to pH 9.0, 150 mM NaCl
smiles,measurement,value
CC1=C(/C=C/C(C)=C/C=C/C(C)=C/C=O)C(C)(C)CCC1 [retinal],"time-resolved serial femtosecond crystallography (XFEL, room temperature), dark",examining structural changes after photoactivation of its retinal chromophore
